Literature values, collected in US20250319089A1, “STABLE LYOPHILISATES COMPRISING 5,10-METHYLENE-(6R)-TETRAHYDROFOLIC ACID” (Merck Patent GMBH, priority 2022, published 2025).

- purity after 24 hours compared to the starting purity (24 hours following dissolution in water): 44.9%
- purity after 7 hours (re-constituted lyophilizate, 7 hours): 84%
- loss of purity per hour (degradation rate) (re-constituted lyophilizate, linear regression): 2.3 % purity per hour
SMILES: Nc1nc2c(c(=O)[nH]1)N1CN(c3ccc(C(=O)N[C@@H](CCC(=O)O)C(=O)O)cc3)C[C@H]1CN2 [5,10-methylene-(6R,S)-tetrahydrofolic acid]
